Measured values taken from patent publication US20210379062A1, “The use of a H3R inverse agonist for the treatment of excessive daytime sleepiness associated with parkinson's disease (PD)” (Novartis AG, priority 2018, published 2021).
Values joined by “and” are separate entries in the source; they are usually repeats but may differ in a detail not shown here. Equal entries are not always repeated.

Key:
[1] = target: H3 receptors in the brain (Homo sapiens, UniProt Q9Y5N1); assay: PET brain H3 receptor occupancy study with [11C]MK-8278 in healthy volunteers; type: in vivo
Method: An open-label, adaptive design study was performed in healthy volunteers to characterize regional brain H3 receptor occupancy following single dose of Compound (I) by using positron emission tomography (PET) with the radioligand [^11C]MK-8278 (Van Laere, K. J. et al, Journal of Nuclear Medicine, 2014, 55: 65-72). The primary objective of this study was to evaluate the plasma concentration of Compound (I) leading to 50% occupancy of H3 receptors in the brain (EC50). A total of 6 subjects were enrolled into the study and were scanned in three cohorts of two subjects each. Prior to dosing with Compound (I), each subject underwent a baseline PET scan to assess binding of [^11C]MK-8278 to H3R in the absence of Compound (I). Subjects subsequently received single oral doses of Compound (I) and then underwent two post-dose PET scans. Subjects of cohort 1 received a single oral dose of 300 mg of Compound (I), corresponding to the single dose maximum tolerated dose (MTD) determined from the Phase I study after single oral dose of Compound (I). These subjects underwent two post-dose PET scans, at 3 hours and 27 hours after dosing. The doses and scan timings for the subsequent cohorts were selected based on interim data analyses following the completion of the preceding cohort(s). Subjects of cohorts 2 and 3 received a single oral dose of 10 mg and 0.3 mg, respectively. Compound (I) was administered as capsules in cohorts 1 and 2, whereas cohort 3 received Compound (I) as an oral solution. […] The first post-dose PET scan for cohorts 2 and 3 was acquired at 3 hours and the second one at 27 hours and 8 hours after dosing, respectively.
The binding was consistent with both the known distribution of H3 receptors and previous [^11C]MK-8278 data (Van Laere, K. J. et al, Journal of Nuclear Medicine, 2014, 55: 65-72). The kinetics of [^11C]MK-8278 in brain were analyzed using different modelling approaches, such as the one- and two-tissue compartment (1TC, 2TC) models, multilinear analysis (MA1; Ichise, M. et al., Journal of Cerebral Blood Flow and Metabolism, 2002, 22: 1271-1281) and the Logan graphical method (Logan, J. et al., Journal of Cerebral Blood Flow and Metabolism, 1990, 10(5): 740-747). All methods produced similar results, but the 2TC model was the most appropriate to derive regional VT values. Tissue time-activity curves (TACs) were generated for all scans and were characterized by a peak at around 5-15 minutes post-injection, followed by washout. After administration of Compound (I), regional binding of [^11C]MK-8278 was reduced compared to baseline scans, indicating engagement of Compound (I) with the target. The occupancy plot method proposed by Lassen (Lassen, N. A. et al., Journal of Cerebral Blood Flow and Metabolism, 1995, 15 (1): 152-165; Cunningham, V. J. et al., Journal of Cerebral Blood Flow and Metabolism, 2010, 30 (1): 46-50) was applied to estimate whole-brain H3 receptor occupancy for each post-dose PET scan. This method also provided consistent estimates of the non-displaceable component (VND).
The relationship between plasma concentration of Compound (I) and H3 receptor occupancy was characterized plotting occupancy estimates against corresponding plasma concentration data (measured at the start of each post-dose PET scan). The RO versus concentration was analyzed using the Emax model:
Where RO=Receptor occupancy; Emax=maximum receptor occupancy; Cp=plasma concentration of Compound (I) during PET scan; EC50=plasma concentration leading to 50% of maximum change in RO.

H3 receptor = assay: Ex vivo receptor occupancy assay in rat frontal cortex; settings: rats; for RO: 10 mg/kg oral
Method: Male Sprague-Dawley rats (from Shanghai SLAC Laboratory Animal CO. LTD) at the age of 5-6 weeks were used. The animals were housed in a temperature and humidity-controlled environment on a 12 h light/dark cycle with food and water available ad libitum. All the procedures were approved by Institutional Animal Care and Use Committee of Chempartner Co., LTD (IACUC Protocol NO: A998HL0076).
Compounds were dissolved in 50 mM citrate buffer (pH 3.5), or saline. The compound was then diluted stepwise to the final concentration with vehicle. Animals were dosed by p.o. or i.v. in 1 ml/kg bodyweight.
At each time point, rats were decapitated immediately. Intact brain was removed, immersed and washed in pre-cooled saline. After drying with filter paper, frontal cortex was dissected with a double-blade with an about 30° angle starting at ⅓ of anterior rat brain (weight of most brain tissues around 70±10 mg). Brain tissue was transferred into a pre-weighed tube with homogenizer beads. The tubes were weighed again and the tissue net weight was recorded. Tissue sampling was done on ice with intervals of 1 min. Then, 50 mM HEPES (Gibco® by Life Technologies) buffer were added (equivalent to 3.75 μl/mg tissue weight) followed by homogenization (frequency 30/sec for 20 sec, TissueLyser, Quiagen).
The crude homogenate samples of rat frontal cortex were used to measure H3 receptor binding as described above with [^3H]—N-α-methylhistamine as radioligand. The protein concentration of each sample was determined by Pierce BCA Protein Assay Kit (Thermo).
The cortical homogenate was added to a 96-well plate containing [^3H]—N-α-methylhistamine (0.1 nM), in a volume of 0.2 ml (final protein concentration 4 μg/μl), incubated at 28° C. for 15 min and the reaction was stopped by rapid filtration using a filtration plate (Millipore multiscreen GF/B plate). The filters were washed three times with ice-cold wash buffer (50 mM Tris, pH 7.5) and 250 μl of Microscint-40 were added followed by determination of the bound radiolabel with a Wallac Microbeta Trilux 2450 (Perkin Elmer). Nonspecific binding was determined in the presence of 10 μM thioperamide. Each data point was obtained from a total of at least four animals. The inhibition of specific [^3H]NAMH binding, calculated as relative to vehicle-treated samples, was determined to provide an indication of receptor occupancy by the compound. The dose-dependent % RO and time course were analyzed using GraphPad Prism. The dose response was fit using GraphPad Prism: log(inhibitor) vs. response with variable slope.

Chain of H3 receptors in the brain (Q9Y5N1 whole entry): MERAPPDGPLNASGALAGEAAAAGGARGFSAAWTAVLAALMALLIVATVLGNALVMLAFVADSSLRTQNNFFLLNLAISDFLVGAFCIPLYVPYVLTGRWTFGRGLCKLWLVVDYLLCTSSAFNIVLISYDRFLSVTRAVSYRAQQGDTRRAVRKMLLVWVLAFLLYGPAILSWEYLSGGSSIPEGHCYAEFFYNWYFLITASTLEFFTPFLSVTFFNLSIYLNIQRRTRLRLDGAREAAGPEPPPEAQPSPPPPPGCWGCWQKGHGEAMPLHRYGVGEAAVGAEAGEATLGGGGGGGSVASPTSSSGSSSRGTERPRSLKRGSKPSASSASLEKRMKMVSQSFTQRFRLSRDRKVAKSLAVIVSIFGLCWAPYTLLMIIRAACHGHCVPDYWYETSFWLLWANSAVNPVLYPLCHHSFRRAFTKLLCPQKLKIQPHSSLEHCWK

With `Cn1nc(N2CCC(OC(=O)N3CCN(C4CCC4)CC3)CC2)ccc1=O` [Compound (I), 1-(1-methyl-6-oxo-1,6-dihydropyridazin-3-yl)piperidin-4-yl 4-cyclobutylpiperazine-1-carboxylate] the “Emax (maximum receptor occupancy)” value ([1]; Emax model of PK-RO relationship) was 96.1% and 96.16%, the “Receptor occupancy (RO)” value ([1]; first cohort, single oral dose 300 mg, 3 hours post-dose, both subjects) was “higher than 95%” and the “Receptor occupancy (RO)” value ([1]; first cohort, single oral dose 300 mg, 27 hours post-dose, both subjects) was “higher than 95%”. The EC50 ([1]; read-out: EC50 (plasma concentration leading to 50% occupancy of H3 receptors), Emax model of PK-RO relationship, plasma concentration) was 0.772 nM, the “Receptor occupancy (RO)” value ([1]; second cohort, single oral dose 10 mg, 3 hours post dose) was “similarly high” and the “Receptor occupancy (RO)” value ([1]; second cohort, single oral dose 10 mg, 27 hours post dose) was “decreased”. For the same molecule, the “Receptor occupancy (RO)” value ([1]; third cohort, single oral dose 0.3 mg, 3 h and 8 h post dose) was “generally lower than in the other cohorts”, the RO (H3 receptor; 1 h time point (initial RO)) was 95% and the RO (H3 receptor; 4 h) was 50%. For the same molecule, the RO (H3 receptor; 4 h, listed as LML134) was 39%, the RO (H3 receptor; 8 h) was 0% and the RO (H3 receptor; 8 h, listed as LML134) was “almost not RO was detectable”. For the same molecule, the “dose that resulted in H3 receptor occupancy of 80-90%” value (H3 receptor; oral dosing, 1 h after compound administration) was 10 mg/kg.
